Test system: TNF-alpha production in LPS stimulated human peripheral blood mononuclear cells (PBMCs)
Experiment: Inhibition on TNF-alpha Production in Human Mononuclear Cells
Type: cell-based
Conditions: PBMC, LPS 1 μg/mL, 24 hours, TNF-alpha by ELISA, read-out: IC50, TNF-alpha production from stimulated PBMCs
Protocol: (b) Inhibition on TNF-alpha Production in Human Mononuclear Cells 1. Test Method (1) Human Peripheral Blood Mononuclear Cells (PBMCs) Preparation
Blood (30 ml for each person) was collected from the median cubital vein of healthy volunteer was divided 15 mL each in heparin containing conical tube and the same volume of RPMI1640 was added to each tube. Diluted blood was then piled up to 20 mL of Ficoll-Paque PLUS (Amersham Pharmacia Biotech) in polystyrene centrifuge tube. After centrifugation at 1,600 rpm for 30 minutes, cells gathering in the center area of the gradient were collected by capillary and washed with 40 mL of RPMI1640 in several times with centrifugation at 1,200 rpm for 10 minutes. PBMC finally precipitated were suspended in RPMI1640 containing 1% fetal bovine serum and antibiotics. After cell counting, final suspension at 3×10^6 cells/mL in culture medium was prepared.
Human PBMCs prepared by the density gradient method using Ficoll-Paque PLUS were suspended in the culture medium mentioned above with the concentration of 3×10^6 cells/mL and 0.5 mL of the suspension was sowed into each well of a 24-well culture plate. Cells were incubated in the CO2 incubator for 24 hours with 0.25 mL of LPS in addition of 0.25 mL of concentrations of drugs or vehicle at the start of the incubation. […] TNF-alpha levels in the medium were measured by ELISA. […]

| SMILES | IC50 [nM] |
| --- | --- |
| CCc1ccc2c(-c3ccc(C(N)=O)cc3)c(CCCCCC(=O)O)c(C)nn12 [Example 198, 6-{4-[4-(Aminocarbonyl)phenyl]-7-ethyl-2-methylpyrrolo[1,2-b]pyridazin-3-yl}hexanoic acid] | < 100 |

Test system: not given
Experiment: not given
Conditions: not given

| SMILES | melting point [°C] |
| --- | --- |
| CCc1ccc2c(-c3cccc(Cl)c3)c(C#N)c(-c3ccccc3)nn12 [Example 7, 4-(3-Chlorophenyl)-7-ethyl-2-phenylpyrrolo[1,2-b]pyridazine-3-carbonitrile] | 172 to 173 |
| CCc1ccc2c(-c3cccc(C#N)c3)c3c(nn12)CCC3=O [Example 10, 3-(6-Ethyl-1-oxo-2,3-dihydro-1H-cyclopenta[e]pyrrolo[1,2-b]pyridazin-9-yl)benzonitrile] | 150 to 154 |
| CCc1ccc2c(-c3ccnc(Cl)c3)c(CCCCC(=O)O)c(C)nn12 [Example 94, 5-[4-(2-Chloro-4-pyridinyl)-7-ethyl-2-methylpyrrolo[1,2-b]pyridazin-3-yl]pentanoic acid] | 139 to 140 |
| CCc1ccc2c(-c3cncc(Br)c3)c(CCC(=O)O)c(C)nn12 [Example 135, 3-[4-(5-Bromo-3-pyridinyl)-7-ethyl-2-methylpyrrolo[1,2-b]pyridazin-3-yl]propanoic acid] | 181 to 182 |
| CCOC(=O)CC(=O)Cc1c(C)nn2c(Cl)ccc2c1-c1ccc(F)cc1 [Example 192, Ethyl 4-[7-chloro-4-(4-fluorophenyl)-2-methylpyrrolo[1,2-b]pyridazin-3-yl]-3-oxobutanoate] | 116 to 118 |
| CCc1ccc2c(-c3cccc(C#N)c3)c(CCCCC(=O)Nc3ccccn3)c(-c3ccccc3)nn12 [Example 263, 5-[4-(3-Cyanophenyl)-7-ethyl-2-phenylpyrrolo[1,2-b]pyridazin-3-yl]-N-(2-pyridinyl)pentanamide] | 67 to 70 |
| CCc1ccc2c(-c3cncc(Br)c3)c(CCCCC(=O)NS(C)(=O)=O)c(C)nn12 [Example 267, N-{5-[4-(5-Bromo-3-pyridinyl)-7-ethyl-2-methylpyrrolo[1,2-b]pyridazin-3-yl]pentanoyl}methanesulfonamide] | 124 to 125 |
| CCc1ccc2c(-c3cccc(C#N)c3)c(CCCCC(=O)NC)c(-c3ccccc3)nn12 [Example 278, 5-[4-(3-Cyanophenyl)-7-ethyl-2-phenylpyrrolo[1,2-b]pyridazin-3-yl]-N-methylpentanamide] | 60 |
| CCc1ccc2c(-c3cccc(Cl)c3)c(CCCCC(=O)N3CCOCC3)c(-c3ccccc3)nn12 [Example 279, 4-(3-Chlorophenyl)-7-ethyl-3-[5-(4-morpholinyl)-5-oxopentyl]-2-phenylpyrrolo[1,2-b]pyridazine] | 55 to 58 |
| CCc1ccc2c(-c3cccc(Cl)c3)c(CCCCC(=O)NC)c(-c3ccccc3)nn12 [Example 280, 5-[4-(3-Chlorophenyl)-7-ethyl-2-phenylpyrrolo[1,2-b]pyridazin-3-yl]-N-methylpentanamide] | 70 to 72 |
| CCc1ccc2c(-c3cccc(C#N)c3)c(CCCCC(=O)N3CCOCC3)c(-c3ccccc3)nn12 [Example 282, 3-{7-Ethyl-3-[5-(4-morpholinyl)-5-oxopentyl]-2-phenylpyrrolo[1,2-b]pyridazin-4-yl}benzonitrile] | 66 to 69 |
| CCc1ccc2c(-c3cncc(Br)c3)c(CCC(=O)N3CCOCC3)c(C)nn12 [Example 388, 4-(5-bromo-3-pyridinyl)-7-ethyl-2-methyl-3-[3-(4-morpholinyl)-3-oxopropyl]pyrrolo[1,2-b]pyridazine] | 178 to 180 |
| CCc1ccc2c(-c3cncc(Br)c3)c(CCC(=O)NC)c(C)nn12 [Example 389, 3-[4-(5-bromo-3-pyridinyl)-7-ethyl-2-methylpyrrolo[1,2-b]pyridazin-3-yl]-N-methylpropanamide] | 172 to 174 |
| CCc1ccc2c(-c3cncc(Br)c3)c(CCC(=O)NS(C)(=O)=O)c(C)nn12 [Example 390, N-{3-[4-(5-bromo-3-pyridinyl)-7-ethyl-2-methylpyrrolo[1,2-b]pyridazin-3-yl]propanoyl}methanesulfonamide] | 196.5 to 197.5 |
| CCc1ccc2c(-c3cncc(Br)c3)c(C(=O)OC)c(COC(C)=O)nn12 [Example 429, methyl 2-[(acetyloxy)methyl]-4-(5-bromo-3-pyridinyl)-7-ethylpyrrolo[1,2-b]pyridazine-3-carboxylate] | 122 to 123 |
| CCc1ccc2c(-c3cncc(OC)c3)c(CCCCC(=O)O)c(COC)nn12 [Example 496, 5-[7-ethyl-2-(methoxymethyl)-4-(5-methoxy-3-pyridinyl)pyrrolo[1,2-b]pyridazin-3-yl]pentanoic acid] | 111 to 112 |
| CCc1ccc2c(-c3cncc(OC)c3)c(CCC(=O)O)c(COC)nn12 [Example 498, 3-[7-ethyl-2-(methoxymethyl)-4-(5-methoxy-3-pyridinyl)pyrrolo[1,2-b]pyridazin-3-yl]propanoic acid] | 164 to 165 |
| CCc1ccc2c(-c3cncc(OC)c3)c(CCCC(=O)O)c(COC)nn12 [Example 499, 4-[7-ethyl-2-(methoxymethyl)-4-(5-methoxy-3-pyridinyl)pyrrolo[1,2-b]pyridazin-3-yl]butanoic acid] | 140 to 141 |
| CCc1ccc2c(-c3cncc(Cl)c3)c(CCCC(=O)O)c(COC)nn12 [Example 501, 4-[4-(5-chloro-3-pyridinyl)-7-ethyl-2-(methoxymethyl)pyrrolo[1,2-b]pyridazin-3-yl]butanoic acid] | 112 to 113 |
| CCc1ccc2c(-c3cncc(Cl)c3)c(CCC(=O)O)c(COC)nn12 [Example 502, 3-[4-(5-chloro-3-pyridinyl)-7-ethyl-2-(methoxymethyl)pyrrolo[1,2-b]pyridazin-3-yl]propanoic acid] | 159 to 160 |
| CCc1ccc2c(-c3cncc(Cl)c3)c(CCCCC(=O)O)c(COC)nn12 [Example 503, 5-[4-(5-chloro-3-pyridinyl)-7-ethyl-2-(methoxymethyl)pyrrolo[1,2-b]pyridazin-3-yl]pentanoic acid] | 118 to 119 |

Molecular target: U937 Phosphodiesterase IV (PDE IV)
Experiment: Inhibition of U937 Phosphodiesterase IV (PDE IV)
Type: biochemical
Conditions: enzyme preparation from U937 cells, [3H]cAMP SPA assay, CI-930 10 μM added, 30° C. 15 minutes; read-out: IC50, inhibitory activity on PDE-IV
Protocol: (a) Inhibition of U937 Phosphodiesterase IV (PDE IV)
Cultured U937 cells were washed twice and harvested with phosphate-buffered saline (PBS) by cell-scraper. After centrifugation, the cell pellet was suspended in homogenizing buffer (0.5% deoxycholate [DOC], 5 mM 2-mercaptoethanol, 1 μM leupeptin, 100 μM PMSF, 20 μM p-tosyl-L-lysine-chloromethyl ketone [TLCK] in PBS). The cell suspension was then sonicated for a couple of minutes and homogenized by a glass-Teflon homogenizer with twenty strokes. The homogenate was centrifuged at 200 g for 30 minutes, and the supernatant was further ultra-centrifuged at 100,000×g for 90 minutes (4° C.). […]
PDE4, activity was estimated with a Phosphodiesterase [^3H]cAMP SPA Enzyme Assay System (Amersham Pharmacia Biotech), using a 96 well Opti-plate. […] Radio-activity in each well was counted by a Top Counter. […]
IC50 values of test compounds for the enzyme activity of PDE4 was determined from regression analysis for log-logit conversion values of percent inhibition in the compound-treated tubes compared to that of the control. Percent inhibition was calculated with the following equation: Inhibition (%)={1−(C−B)/(A−B)}×100; in which A, B and C means mean values of radio-activity counts (dpm) of control, blank and the compound-treated tubes, respectively.

| SMILES | IC50 [nM] |
| --- | --- |
| CCc1ccc2c(-c3ccc(C(N)=O)cc3)c(CCCCCC(=O)O)c(C)nn12 [Example 198, 6-{4-[4-(Aminocarbonyl)phenyl]-7-ethyl-2-methylpyrrolo[1,2-b]pyridazin-3-yl}hexanoic acid] | < 1000 |
